Reference: ChEMBL document CHEMBL1136519, “Indole amide hydroxamic acids as potent inhibitors of histone deacetylases” (Bioorg Med Chem Lett, 2003)

Columns and labels:
[1] = target: Histone deacetylase (HDAC1 and HDAC2) (Homo sapiens, UniProt Q13547+Q92769); assay: Inhibitory activity was tested against histone deacetylase (HDAC).; format: protein assay
[2] = test system: HT-1080; assay: Antiproliferative activity against HT1080 (human fibrosarcoma) cell line.; format: functional, cell-based
[3] = test system: MDA-MB-435; assay: cells; format: functional, cell-based; conditions: Homo sapiens
Description: Antiproliferative activity against MDA-435 (human breast carcinoma) cell line.

[4] = test system: Mus musculus; assay: Antitumor activity against HT1080 cell line in mouse xenograft model after orally dosed once every other day at 100 mg/kg; format: functional; conditions: HT-1080, route oral
[5] = test system: Mus musculus; assay: Antitumor activity against HT1080 cell line in mouse xenograft model after orally dosed once every other day at 30 mg/kg; format: functional; conditions: HT-1080, route oral

Row | IC50 [1] | IC50 [2] | IC50 [3] | SMILES | inhibition in vivo at 100 mg/kg [4] | inhibition in vivo at 30 mg/kg [5]
1 | 0.041 µM |  |  | O=C(CCCCCCNC(=O)c1cccc2cc[nH]c12)NO |  | 
2 | 1.68 µM |  |  | O=C(CCCCCCNC(=O)c1ccccn1)NO |  | 
3 | 0.047 µM | 0.84 µM | 0.61 µM | Cn1c(C(=O)NCCCCCCC(=O)NO)cc2ccccc21 |  | 
4 | 0.017 µM |  |  | O=C(CCCCCNC(=O)c1ccc2[nH]ccc2c1)NO |  | 
5 | 0.0146 µM |  |  | O=C(CCCCCCNC(=O)c1cc2ccccc2[nH]1)NO | 39% | 36%
6 | 0.0398 µM |  |  | O=C(CCCCCNC(=O)c1c[nH]c2ccccc12)NO |  | 
7 | 0.056 µM | 0.78 µM | 0.39 µM | Cn1cc(C(=O)NCCCCCCC(=O)NO)c2ccccc21 |  | 
8 | 0.0125 µM |  |  | O=C(CCCCCNC(=O)c1cc2ccccc2[nH]1)NO |  | 
9 | 0.0565 µM |  |  | O=C(CCCCCCNC(=O)c1ccc2cc[nH]c2c1)NO |  | 
10 | 0.0375 µM |  |  | O=C(CCCCCCNC(=O)c1c[nH]c2ccccc12)NO |  | 
11 | 0.0296 µM | 0.76 µM | 0.49 µM | O=C(CCCCCCNC(=O)c1cc2ccccc2o1)NO |  | 
12 | 0.0376 µM |  |  | O=C(CCCCCNC(=O)c1cccc2cc[nH]c12)NO |  | 
13 | 0.0364 µM |  |  | O=C(CCCCCNC(=O)c1ccc2cc[nH]c2c1)NO |  | 
14 | 0.0803 µM |  |  | O=C(CCCCCCNC(=O)c1cccc2[nH]ccc12)NO |  | 
15 | 0.0314 µM |  |  | O=C(CCCCCCNC(=O)c1ccc2[nH]ccc2c1)NO |  | 
16 | 0.0063 µM | 0.2 µM | 0.17 µM | Cc1ccc2[nH]c(C(=O)NCCCCCCC(=O)NO)cc2c1 |  | 
17 | 0.017 µM | 0.71 µM | 0.32 µM | COc1cccc2cc(C(=O)NCCCCCCC(=O)NO)oc12 |  | 

The next lines start with the compound.

Row | SMILES | IC50 [1] | IC50 [2] | IC50 [3] | inhibition in vivo at 100 mg/kg [4] | inhibition in vivo at 30 mg/kg [5]
18 | O=C(CCCCCNC(=O)c1cccc2[nH]ccc12)NO | 0.0876 µM |  |  |  | 
19 | O=C(CCCCCCNC(=O)c1cc2cc(Br)ccc2[nH]1)NO | 0.0035 µM | 0.48 µM | 0.47 µM |  | 
20 | O=C(CCCCCCNC(=O)c1cn(-c2ccccc2)c2ccccc12)NO | 0.0035 µM | 2.5 µM | 0.76 µM |  | 
21 | O=C(CCCCCCNC(=O)c1cn(Cc2ccccc2)c2ccccc12)NO | 0.012 µM | 1.9 µM | 0.85 µM |  | 
22 | O=C(CCCCCCNC(=O)c1cc2cc(Cl)ccc2o1)NO | 0.015 µM | 0.18 µM | 0.19 µM |  | 
23 | CC1c2ccccc2CC1C(=O)NCCCCCCC(=O)NO (stereo not given) | 0.732 µM |  |  |  | 
24 | COc1cc(OC)c2cc(C(=O)NCCCCCCC(=O)NO)[nH]c2c1 | 0.0031 µM | 0.26 µM | 0.6 µM |  | 
25 | COc1cccc2[nH]c(C(=O)NCCCCCCC(=O)NO)cc12 | 0.0031 µM | 0.12 µM | 0.13 µM |  | 
26 | COc1ccc2cc(C(=O)NCCCCCCC(=O)NO)[nH]c2c1 | 0.0099 µM | 0.34 µM | 0.23 µM |  | 
27 | O=C(CCCCCCNC(=O)c1cn(-c2ccc(Br)cc2)c2ccccc12)NO | 0.0189 µM | 0.49 µM | 0.34 µM |  | 
28 | O=C(CCCCCCNC(=O)c1cc2cc(F)ccc2[nH]1)NO | 0.0054 µM | 0.48 µM | 0.25 µM |  | 
29 | O=C(CCCCCCNC(=O)c1cc2cc(OC(F)(F)F)ccc2[nH]1)NO | 0.016 µM | 0.89 µM | 0.3 µM |  | 
30 | O=C(CCCCCCNC(=O)c1cn(-c2ccc(F)cc2)c2ccccc12)NO | 0.0118 µM | 0.99 µM | 0.38 µM |  | 
31 | COc1ccc2[nH]c(C(=O)NCCCCCCC(=O)NO)cc2c1 | 0.0065 µM | 0.72 µM | 1.2 µM |  | 
32 | COc1ccc2oc(C(=O)NCCCCCCC(=O)NO)cc2c1 | 0.015 µM | 0.38 µM | 0.3 µM |  | 
33 | O=C(CCCCCCNC(=O)c1cc2cc(OCc3ccccc3)ccc2[nH]1)NO | 0.0136 µM | 1.5 µM | 0.8 µM |  | 
34 | O=C(CCCCCCNC(=O)c1ccc[nH]1)NO | 0.524 µM |  |  |  | 
35 | Cc1c(C(=O)NCCCCCCC(=O)NO)oc2ccccc12 | 0.0125 µM |  |  |  | 
